According to US20140272947A1, “METHODS AND COMPOSITIONS FOR SCREENING MODULATORS OF ONCOGENE-INDUCED SENESCENCE” (Fox Chase Cancer Center, priority 2013, published 2014):

Assays:
[1] = system: primary fibroblasts (IMR90) transduced with H-RasG12V; assay: Validation: manual quantification of SA-β-gal positive cells; format: cell-based, human; settings: for % SA-β-Gal + Cells Avg: 250 nM inhibitor, +H-RasG12V IMR90, 7 additional days, >300 cells counted, triplicate
Description: Senescence-associated β-galactosidase (SA-β-Gal) assay has previously been described^9. Briefly, cells were fixed in 2% formaldehyde and 0.2% glutaraldehyde and washed with phosphate-buffered saline. Staining solution [40 mM Na2HPO4, 150 mM NaCl, 2 mM MgCl2, 5 mM K3Fe(CN)6, 5 mM K4Fe(CN)6, 1 mg/mL X-gal] was added with a multichannel pipette, and cells were incubated for 24 hrs. Cells were stained with DAPI (0.15 μg/mL) to visualize nuclei.
(§1) Cells with β-galactosidase (blue) positivity within the cytosol were considered positive. Cells were stained with DAPI to visualize nuclei and SAHF. Cells with punctate spots within the nuclear compartment were considered SAHF positive. Cells were imaged using a Nikon Eclipse Ni fluorescence microscope as previously described^15. Three different fields of cells were counted (total cells counted >300). These experiments were performed in triplicate. Data from validation experiments is shown as a percentage of SA-β-gal or SAHF positive cells.
These cells were then utilized in the SA-β-gal assay to examine changes in expression of SA-β-gal activity.
(§2) Other than the control, all of the tested compounds are +H-Ras^G12V. Percentage of SA-β-gal and SAHF positive cells is shown with indicated standard deviation (SD). Total cells with SA-β-gal positive cells or SAHF positive cells were counted in three separate fields (totals cells counted >300). Experiments were performed in triplicate. p-value determined by t-test.

[2] = system: primary fibroblasts (IMR90) transduced with H-RasG12V; assay: Validation: senescence-associated heterochromatin foci (SAHF) positive cells by DAPI staining; format: cell-based, human; settings: for % SAHF + Cells Avg: 250 nM inhibitor, +H-RasG12V IMR90, 9 days of culture, >300 cells counted, triplicate
Description: as §1
After 9 days of culture, we stained the cells with DAPI to visualize the formation of SAHF.
as §2

[3] = system: primary human fibroblasts (IMR90) transduced with H-RasG12V; assay: High-throughput senescence screen (SA-β-gal area and nuclei number, high-content imaging); format: cell-based; settings: 250 nM, 96-well, normalized to DMSO control, hit = beyond one standard deviation
Description: We use a model system for DIS that involves overexpressing an activated Ras in normal human fibroblast (IMR90). Upon expression of Ras, these cells undergo senescence as measured by increased β-galactosidase activity. IMR90 cells are infected with retrovirus control (496) or Ras (493). IMR90 cells were transduced over two days (Day −1 and 0) with pBABE-HRasG12V. Cells were then plated into a 96-well plate at a predetermined density (1,000 cells/well) and selected with puromycin (1 ug/mL) for two days (Day 1 and 2). The initial number of cells per well (1,000) was optimized to avoid confluence-induced growth inhibition. […] Allowing the cells to undergo senescence ([…] after puromycin selection), on day 9, cells were subjected to a quantitative SA-β-gal assay (described below) and stained with DAPI to visualize nuclei, which allowed for quantification of cell number. […]
For the screen, four fluorescence and four phase contrast images were acquired from each well of the 96-well plates with an ImageXpress Micro high-content imaging system (Molecular Devices, Sunnyvale Calif.) using the 10× objective. […] Fluorescence images were used to record DAPI staining of cell nuclei. Images were analyzed utilizing the MultiWavelength Scoring module in METAXPRESS image analysis software (Molecular Devices). […]

senescence = settings: literature report; cited from earlier work
[4] = 250 nM, RAS-expressing cells, significance p<0.05 vs DMSO

| Compound | % SA-β-Gal + Cells Avg [1] | % SAHF + Cells Avg [2] | Inhibition of oncogenic RAS-induced SAHF formation (validation, in words) [2, 4] | Reduction of expression of SA-β-gal activity (validation, in words) [1, 4] | Effect on SA-β-gal area and cell number (nuclei) in initial screen [3] | Prevention of senescence (reported) (senescence) |
| --- | --- | --- | --- | --- | --- | --- |
| Cc1nc2cc3nc(-c4cccs4)cnc3cc2n1C [22617-28-8, AGL2043] | 10.9% | 10.2% |  |  |  |  |
| O=c1c2ccccc2[nH]c(=S)n1CCN1CCC(=C(c2ccc(F)cc2)c2ccc(F)cc2)CC1 [120166-69-0, Diacylglycerol Kinase Inhibitor II] | 5.2% | 10.4% |  |  |  |  |
| COc1ccc(S(=O)(=O)N(CCO)c2ccccc2CN(C)CC=Cc2ccc(Cl)cc2)cc1 [139298-40-1, KN-93] | 8.1% | 12.3% |  |  |  |  |
| CCc1[nH]c(-c2ccc(OC)cc2)nc1-c1ccncc1 [172747-50-1, SB 202474] | 6.7% | 10.4% |  |  |  |  |
| COc1cc2ncnc(Nc3cccc(Cl)c3)c2cc1OC [175178-82-2, AG 1478] | 3.8% | 11.5% |  |  |  |  |
| O=c1c(-c2ccc(F)cc2)c(-c2ccncc2)[nH]n1-c1ccc(Cl)cc1 [219138-24-6, P38 MAPK Inhibitor] | 5.8% | 16.3% |  |  |  |  |
| O=C1NC(=O)C(c2cn(CCCn3ccnc3)c3ccccc23)=C1Nc1ccccc1 [257879-35-9, PKC β Inhibitor] | 5.5% | 8.3% |  |  |  |  |
| O=C(Nc1ccc(Cl)cc1)c1ccccc1NCc1ccncc1 [269390-69-4, VEGFR Tyrosine Kinase Inhibitor II] | 4.1% | 13.0% |  |  |  |  |
| Cn1sc(=O)n(Cc2ccccc2)c1=O [327036-89-5, GSK3β Inhibitor I] | 6.5% | 7.8% |  |  |  |  |
| COc1cc2nccc(Oc3ccc(NC(=S)NC(=O)c4ccccc4C)cc3)c2cc1OC [347155-76-4, PDGFR Tyrosine Kinase Inhibitor V] | 6.7% | 16.3% |  |  |  |  |
| Oc1cccc(-c2nc(N3CCOCC3)c3oc4ncccc4c3n2)c1 [371935-74-9, PI-103] | 4.7% | 43.0% | failed to prevent SAHF formation |  |  |  |
| Cc1cc(Nc2nc(-c3ccccc3)nc3ccccc23)n[nH]1 [404828-08-6, GSK-3 Inhibitor XIII] | 8.2% | 7.0% |  |  |  |  |
| NC(=O)c1ccc2nc(-c3ccc(Oc4ccc(Cl)cc4)cc3)[nH]c2c1 [516480-79-8, Chk2 Inhibitor II] | 7.4% | 13.2% |  |  |  |  |
| O=c1[nH]c2ccccc2n1C1CCN(Cc2ccc(-c3nc4cc5[nH]cnc5cc4nc3-c3ccccc3)cc2)CC1 [612847-09-3, Akt Inhibitor VIII] | 21.3% | 11.3% |  | failed to reduce SA-β-gal activity |  |  |
| O=C1NC(=O)/C(=C/c2ccc3c(c2)OC(F)(F)O3)S1 [648449-76-7] | 20.7% | 26.9% |  |  | no effect on SA-β-gal area or cell number |  |
| Cc1[nH]c(/C=C2\C(=O)Nc3ccc(S(=O)(=O)N(C)c4cccc(Cl)c4)cc32)c(C)c1C(=O)N1CCN(C)CC1 [658084-23-2, Met Kinase inhibitor] | 5.0% | 14.7% |  |  |  |  |
| c1cc(-c2cnn3cc(-c4ccc(OCCN5CCCCC5)cc4)cnc23)ccn1 [866405-64-3, AMPK Compound C] | 4.4% | 15.9% |  |  |  | reported to prevent senescence |
| O=C(Nc1cccc(Nc2nccc(Nc3cccc(C(F)(F)F)c3)n2)c1)C1CC1 [879127-16-9, Aurora Kinase Inhibitor III] | 5.7% | 15.8% |  |  |  |  |
